Data reported in article PMC2991631 (Biochemical pharmacology, 2010).
Read-outs that look alike come from different tables or passages of the source.

Tests used:
[1] = system: carboxylesterases (CE) in human liver microsomal extracts; experiment: CE activity; format: biochemical; conditions: 10μM benzil
[2] = system: carboxylesterases (hiCE, hCE1) in human liver microsomal extracts; format: biochemical; conditions: 10μM benzil
[3] = liver microsomal extracts, typical

Structure (SMILES): O=C(C(=O)c1ccccc1)c1ccccc1 [benzil]
- CE activity + benzil ([1]; liver microsomal extract HG03): 640 ± 97 nmol/mg/min
- Loss in CE activity + benzil ([1]; liver microsomal extract HG03): 5935 nmol/mg/min
- Loss in CE activity + benzil [%] ([1]; liver microsomal extract HG03): 90.3%
- CE activity + benzil ([1]; liver microsomal extract HG74): 854 ± 97 nmol/mg/min
- Loss in CE activity + benzil ([1]; liver microsomal extract HG74): 6353 nmol/mg/min
- Loss in CE activity + benzil [%] ([1]; liver microsomal extract HG74): 88.2%
- CE activity + benzil ([1]; liver microsomal extract HG93): 521 ± 86 nmol/mg/min
- Loss in CE activity + benzil ([1]; liver microsomal extract HG93): 4207 nmol/mg/min
- Loss in CE activity + benzil [%] ([1]; liver microsomal extract HG93): 89.0%
- CE activity + benzil ([1]; liver microsomal extract HG95): 469 ± 45 nmol/mg/min
- Loss in CE activity + benzil ([1]; liver microsomal extract HG95): 4656 nmol/mg/min
- Loss in CE activity + benzil [%] ([1]; liver microsomal extract HG95): 90.9%
- CE activity + benzil ([1]; liver microsomal extract HG103): 448 ± 25 nmol/mg/min
- Loss in CE activity + benzil ([1]; liver microsomal extract HG103): 3258 nmol/mg/min
- Loss in CE activity + benzil [%] ([1]; liver microsomal extract HG103): 87.9%
- CE activity + benzil ([1]; liver microsomal extract HH13): 389 ± 41 nmol/mg/min
- Loss in CE activity + benzil ([1]; liver microsomal extract HH13): 504 nmol/mg/min
- Loss in CE activity + benzil [%] ([1]; liver microsomal extract HH13): 56.4%
- CE activity + benzil ([1]; liver microsomal extract HH61): 406 ± 21 nmol/mg/min
- Loss in CE activity + benzil ([1]; liver microsomal extract HH61): 5472 nmol/mg/min
- Loss in CE activity + benzil [%] ([1]; liver microsomal extract HH61): 93.1%
- CE activity + benzil ([1]; liver microsomal extract HH74): 377 ± 7.8 nmol/mg/min
- Loss in CE activity + benzil ([1]; liver microsomal extract HH74): 3329 nmol/mg/min
- Loss in CE activity + benzil [%] ([1]; liver microsomal extract HH74): 89.8%
- CE activity + benzil ([1]; liver microsomal extract HK37): 476 ± 58 nmol/mg/min
- Loss in CE activity + benzil ([1]; liver microsomal extract HK37): 5856 nmol/mg/min
- Loss in CE activity + benzil [%] ([1]; liver microsomal extract HK37): 92.5%
- CE activity + benzil ([1]; liver microsomal extract SD003): 439 ± 42 nmol/mg/min
- Loss in CE activity + benzil ([1]; liver microsomal extract SD003): 4804 nmol/mg/min
- Loss in CE activity + benzil [%] ([1]; liver microsomal extract SD003): 91.6%
- CE activity + benzil ([1]; liver microsomal extract SD004): 552 ± 35 nmol/mg/min
- Loss in CE activity + benzil ([1]; liver microsomal extract SD004): 5070 nmol/mg/min
- Loss in CE activity + benzil [%] ([1]; liver microsomal extract SD004): 90.2%
- CE activity + benzil ([1]; liver microsomal extract SD104): 507 ± 48 nmol/mg/min
- Loss in CE activity + benzil ([1]; liver microsomal extract SD104): 4881 nmol/mg/min
- Loss in CE activity + benzil [%] ([1]; liver microsomal extract SD104): 90.6%
- CE activity + benzil ([1]; liver microsomal extract SD120): 367 ± 27 nmol/mg/min
- Loss in CE activity + benzil ([1]; liver microsomal extract SD120): 4128 nmol/mg/min
- Loss in CE activity + benzil [%] ([1]; liver microsomal extract SD120): 91.8%
- CE activity + benzil ([1]; liver microsomal extract SD123): 544 ± 29 nmol/mg/min
- Loss in CE activity + benzil ([1]; liver microsomal extract SD123): 5401 nmol/mg/min
- Loss in CE activity + benzil [%] ([1]; liver microsomal extract SD123): 90.9%
- CE activity + benzil ([1]; liver microsomal extract SD124): 268 ± 11 nmol/mg/min
- Loss in CE activity + benzil ([1]; liver microsomal extract SD124): 3140 nmol/mg/min
- Loss in CE activity + benzil [%] ([1]; liver microsomal extract SD124): 92.1%
- CE activity + benzil ([1]; liver microsomal extract SD128): 713 ± 2.7 nmol/mg/min
- Loss in CE activity + benzil ([1]; liver microsomal extract SD128): 5600 nmol/mg/min
- Loss in CE activity + benzil [%] ([1]; liver microsomal extract SD128): 88.7%
- CE activity + benzil ([1]; liver microsomal extract SD132): 935 ± 79 nmol/mg/min
- Loss in CE activity + benzil ([1]; liver microsomal extract SD132): 7259 nmol/mg/min
- Loss in CE activity + benzil [%] ([1]; liver microsomal extract SD132): 88.6%
- CE activity + benzil ([1]; liver microsomal extract SD134): 322 ± 43 nmol/mg/min
- Loss in CE activity + benzil ([1]; liver microsomal extract SD134): 220 nmol/mg/min
- Loss in CE activity + benzil [%] ([1]; liver microsomal extract SD134): 40.6%
- CE activity + benzil ([1]; liver microsomal extract SD136): 314 ± 35 nmol/mg/min
- Loss in CE activity + benzil ([1]; liver microsomal extract SD136): 2882 nmol/mg/min
- Loss in CE activity + benzil [%] ([1]; liver microsomal extract SD136): 90.1%
- reduction of CE activity [1, 3]: 80–90%
- CPT-11 hydrolysis + benzil ([2]; liver microsomal extract HG03): 6.62 ± 0.16 pmol/mg/h
- Loss in CPT-11 hydrolysis + benzil ([2]; liver microsomal extract HG03): 37.6 pmol/mg/h
- Loss in CPT-11 hydrolysis + benzil [%] ([2]; liver microsomal extract HG03): 85%
- CPT-11 hydrolysis + benzil ([2]; liver microsomal extract HG74): 6.25 ± 0.13 pmol/mg/h
- Loss in CPT-11 hydrolysis + benzil ([2]; liver microsomal extract HG74): 33.6 pmol/mg/h
- Loss in CPT-11 hydrolysis + benzil [%] ([2]; liver microsomal extract HG74): 84.3%
- CPT-11 hydrolysis + benzil ([2]; liver microsomal extract HG93): 4.58 ± 0.10 pmol/mg/h
- Loss in CPT-11 hydrolysis + benzil ([2]; liver microsomal extract HG93): 26.0 pmol/mg/h
- Loss in CPT-11 hydrolysis + benzil [%] ([2]; liver microsomal extract HG93): 85.0%
- CPT-11 hydrolysis + benzil ([2]; liver microsomal extract HG95): 5.39 ± 0.09 pmol/mg/h
- Loss in CPT-11 hydrolysis + benzil ([2]; liver microsomal extract HG95): 19.1 pmol/mg/h
- Loss in CPT-11 hydrolysis + benzil [%] ([2]; liver microsomal extract HG95): 78.0%
- CPT-11 hydrolysis + benzil ([2]; liver microsomal extract HG103): 4.22 ± 0.10 pmol/mg/h
- Loss in CPT-11 hydrolysis + benzil ([2]; liver microsomal extract HG103): 28.3 pmol/mg/h
- Loss in CPT-11 hydrolysis + benzil [%] ([2]; liver microsomal extract HG103): 87.0%
- CPT-11 hydrolysis + benzil ([2]; liver microsomal extract HH13): 3.94 ± 0.12 pmol/mg/h
- Loss in CPT-11 hydrolysis + benzil ([2]; liver microsomal extract HH13): 30.0 pmol/mg/h
- Loss in CPT-11 hydrolysis + benzil [%] ([2]; liver microsomal extract HH13): 88.4%
- CPT-11 hydrolysis + benzil ([2]; liver microsomal extract HH61): 2.80 ± 0.007 pmol/mg/h
- Loss in CPT-11 hydrolysis + benzil ([2]; liver microsomal extract HH61): 19.4 pmol/mg/h
- Loss in CPT-11 hydrolysis + benzil [%] ([2]; liver microsomal extract HH61): 87.4%
- CPT-11 hydrolysis + benzil ([2]; liver microsomal extract HH74): 2.49 ± 0.04 pmol/mg/h
- Loss in CPT-11 hydrolysis + benzil ([2]; liver microsomal extract HH74): 12.9 pmol/mg/h
- Loss in CPT-11 hydrolysis + benzil [%] ([2]; liver microsomal extract HH74): 83.8%
- CPT-11 hydrolysis + benzil ([2]; liver microsomal extract HK37): 4.31 ± 0.02 pmol/mg/h
- Loss in CPT-11 hydrolysis + benzil ([2]; liver microsomal extract HK37): 31.0 pmol/mg/h
- Loss in CPT-11 hydrolysis + benzil [%] ([2]; liver microsomal extract HK37): 87.8%
- CPT-11 hydrolysis + benzil ([2]; liver microsomal extract SD003): 8.00 ± 0.01 pmol/mg/h
- Loss in CPT-11 hydrolysis + benzil ([2]; liver microsomal extract SD003): 46.6 pmol/mg/h
- Loss in CPT-11 hydrolysis + benzil [%] ([2]; liver microsomal extract SD003): 85.4%
- CPT-11 hydrolysis + benzil ([2]; liver microsomal extract SD004): 4.38 ± 0.07 pmol/mg/h
- Loss in CPT-11 hydrolysis + benzil ([2]; liver microsomal extract SD004): 29.5 pmol/mg/h
- Loss in CPT-11 hydrolysis + benzil [%] ([2]; liver microsomal extract SD004): 87.1%
- CPT-11 hydrolysis + benzil ([2]; liver microsomal extract SD104): 3.89 ± 0.32 pmol/mg/h
- Loss in CPT-11 hydrolysis + benzil ([2]; liver microsomal extract SD104): 15.6 pmol/mg/h
- Loss in CPT-11 hydrolysis + benzil [%] ([2]; liver microsomal extract SD104): 80.0%
- CPT-11 hydrolysis + benzil ([2]; liver microsomal extract SD120): 6.00 ± 0.20 pmol/mg/h
- Loss in CPT-11 hydrolysis + benzil ([2]; liver microsomal extract SD120): 37.8 pmol/mg/h
- Loss in CPT-11 hydrolysis + benzil [%] ([2]; liver microsomal extract SD120): 86.4%
- CPT-11 hydrolysis + benzil ([2]; liver microsomal extract SD123): 4.00 ± 0.09 pmol/mg/h
- CPT-11 hydrolysis + benzil ([2]; liver microsomal extract SD124): 5.04 ± 0.09 pmol/mg/h
- Loss in CPT-11 hydrolysis + benzil ([2]; liver microsomal extract SD124): 22.1 pmol/mg/h
- Loss in CPT-11 hydrolysis + benzil [%] ([2]; liver microsomal extract SD124): 81.4%
- CPT-11 hydrolysis + benzil ([2]; liver microsomal extract SD128): 4.03 ± 0.01 pmol/mg/h
- Loss in CPT-11 hydrolysis + benzil ([2]; liver microsomal extract SD128): 25.5 pmol/mg/h
- Loss in CPT-11 hydrolysis + benzil [%] ([2]; liver microsomal extract SD128): 86.4%
- CPT-11 hydrolysis + benzil ([2]; liver microsomal extract SD132): 4.30 ± 0.01 pmol/mg/h
- Loss in CPT-11 hydrolysis + benzil ([2]; liver microsomal extract SD132): 22.3 pmol/mg/h
- Loss in CPT-11 hydrolysis + benzil [%] ([2]; liver microsomal extract SD132): 83.9%
- CPT-11 hydrolysis + benzil ([2]; liver microsomal extract SD134): 2.57 ± 0.03 pmol/mg/h
- Loss in CPT-11 hydrolysis + benzil ([2]; liver microsomal extract SD134): 14.9 pmol/mg/h
- Loss in CPT-11 hydrolysis + benzil [%] ([2]; liver microsomal extract SD134): 85.3%
- CPT-11 hydrolysis + benzil ([2]; liver microsomal extract SD136): 7.76 ± 0.18 pmol/mg/h
- Loss in CPT-11 hydrolysis + benzil ([2]; liver microsomal extract SD136): 47.6 pmol/mg/h
- Loss in CPT-11 hydrolysis + benzil [%] ([2]; liver microsomal extract SD136): 86.0%
- reduction of yields of SN-38 produced [2, 3]: 80–90%
